The text below walks through data of publication PMC6562427, “A New Tyrosinase Inhibitor from the Red Alga Symphyocladia latiuscula (Harvey) Yamada (Rhodomelaceae)” (Marine Drugs, 2019).

Structures are written as SMILES. Read-outs that look alike come from different tables or passages of the source.

The subject of data set [1] is tyrosinase protein expression in α-MSH-stimulated B16F10 cells. Put plainly: Tyrosinase protein levels via western blotting. It is filed as cell-based, mouse. The method, then:
The cell suspensions were centrifuged at 16,000 × g for 5 min, and the cell pellets were lysed in a lysis buffer and incubated on ice for 10 min. The cell lysates were centrifuged at 16,000 × g for 10 min, and the supernatant (total protein) was normalized using a Bradford protein assay kit. Aliquots of protein were resolved by sodium dodecyl sulfate-polyacrylamide gel electrophoresis and transferred onto a nitrocellulose membrane. The membrane was blocked with 10% nonfat milk (w/v) in tris-buffered saline with tween (TBST) (0.1 M Tris-HCl, pH 7.5, 1.5 M NaCl, 1% Tween20) for 2 h and incubated for approximately 24 h with TYR primary antibody. The immunoblots were then incubated with appropriate secondary antibodies for 2 h and detected using an enhanced chemiluminescence detection kit.
On the technique in general: In western blotting, separated proteins are transferred to a membrane and probed.

Another data set has as its system B16F10 melanoma cells. The data set is described as follows: Melanin content assay in α-MSH-stimulated cells. It counts as cell-based, mouse. The conditions noted are these: for melanin content: α-MSH alone 151.72%; for effect on melanin content: 6.25, 12.5 and 25 µM. The method, then: Intracellular melanin content was determined according to a previously reported procedure with minor modifications. Briefly, B16F10 cells were seeded in a 24-well plate at 2 × 10,000 cells/well and incubated for 24 h in DMEM containing 10% FBS. Cells were pretreated with 6.25, 12.5, and 25 μM test compounds for 1 h and stimulated with 5 μM α-MSH for 48 h. […] The cells were washed with PBS and dissolved in 1 N NaOH containing 10% DMSO by boiling at 80 °C for 30 min. The cell lysates were centrifuged at 14,000 rpm for 20 min, and absorbance of the supernatant was measured at 405 nm. Melanin content was determined by normalizing the absorbance with total protein content.

Data set [2] has as its target T1, tyrosinase in α-MSH-induced B16F10 melanoma cells (Mus musculus, UniProt P11344).
T1 construct: the supernatant was used as cellular tyrosinase solution; endogenous in cells; host or cells: B16F10 melanoma cells, α-MSH stimulated
T1 sequence (P11344 19-533): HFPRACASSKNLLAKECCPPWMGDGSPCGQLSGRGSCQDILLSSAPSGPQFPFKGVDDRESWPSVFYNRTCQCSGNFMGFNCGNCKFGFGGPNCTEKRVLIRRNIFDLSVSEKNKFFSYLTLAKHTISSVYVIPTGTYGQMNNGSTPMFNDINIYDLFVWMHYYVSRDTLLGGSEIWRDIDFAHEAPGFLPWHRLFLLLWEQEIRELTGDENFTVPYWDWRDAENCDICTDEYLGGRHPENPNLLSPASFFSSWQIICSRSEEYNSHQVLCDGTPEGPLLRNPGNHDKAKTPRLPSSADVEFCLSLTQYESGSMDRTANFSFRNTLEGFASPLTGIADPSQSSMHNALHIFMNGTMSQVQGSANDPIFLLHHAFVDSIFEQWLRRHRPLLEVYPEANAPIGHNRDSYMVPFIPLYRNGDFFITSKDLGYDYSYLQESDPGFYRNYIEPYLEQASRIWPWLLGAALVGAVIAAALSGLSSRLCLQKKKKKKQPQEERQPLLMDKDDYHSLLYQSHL
The data set is described as follows: Cellular tyrosinase assay (L-DOPA oxidation). The conditions noted are these: 5 µM α-MSH 48 h; for intracellular tyrosinase level: α-MSH alone 215.73%; for effect on intracellular tyrosinase activity: 6.25, 12.5 and 25 µM. It is filed as cell-based. The method, then:
Intracellular tyrosinase inhibitory activity was evaluated by measuring the rate of oxidation of L-DOPA [57]. […] The cells were washed with PBS and lysed with a radio immunoprecipitation assay buffer. The cell lysates were kept in a deep freezer (−80 °C) for 1 h. After defrosting the cell lysates, the cellular extracts were purified by centrifugation at 14,000 rpm for 20 min at 4 °C, and the supernatant was used as cellular tyrosinase solution. A total of 80 µL of supernatant and 20 µL of L-DOPA (2 mg/mL) were added to a 96-well plate and incubated at 37 °C for 45 min. Dopachrome formation was then measured spectrophotometrically at 450 nm using a microplate spectrophotometer (Molecular Devices). Intracellular tyrosinase activity was calculated as the percentage of control.

A short description of data set [3]: Cell viability, MTT assay. It counts as cell-based. Conditions: mouse. The method, then: B16F10 mouse melanoma cells obtained from American Type Culture Collection (Manassas, VA, USA) were maintained in 10% FBS in high-glucose DMEM containing 100 U/mL penicillin and 100 μg/mL streptomycin at 37 °C in a humidified atmosphere with 5% CO2. Cytotoxicity was evaluated using a 3-(4,5-dimethylthiazol-2-yl)-2,5-diphenyltetrazolium bromide (MTT) assay. After 95% of confluence, B16F10 cells were seeded in a 96-well plate at 10,000 cells/well and incubated for 24 h in DMEM supplemented with 10% FBS. The cells were then fed fresh serum-free DMEM containing different concentrations (25 to 100 μM) of the test compounds and incubated for 48 h. After that, the cells were incubated with 100 μL of MTT at a concentration of […] in phosphate-buffered saline (PBS) for 2 h. Absorbance was measured at 490 nm by a microplate reader (Promega Corporation Instrument, USA) after 2 h of incubation. The viability of cells at 48 h upon co-treatment with α-MSH was evaluated by treating cells with 5 μM α-MSH 1 h after the treatment with test compounds.
(In general: Tetrazolium dyes change colour on reduction, which living cells bring about.)

Data set [4] concerns the target T2, mushroom tyrosinase (Agaricus bisporus, UniProt C7FF04).
T2 construct: purchased Sigma Aldrich
Put plainly: Mushroom tyrosinase inhibitory assay (spectrophotometric). It counts as biochemical. The conditions noted are these: mean ± SD, n = 3. The method, then: The inhibitory activity of mushroom tyrosinase was carried out using a spectrophotometric method described in [27] with slight modifications. […] Then, 20 µL of tyrosinase was added and incubated at room temperature for between 10 and 30 minutes. Absorbance was measured at 490 nm after incubation.

For data set [5], the target named is T2, mushroom tyrosinase. Put plainly: Kinetic study against mushroom tyrosinase (Lineweaver-Burk and secondary plots). It counts as biochemical. The protocol: The inhibition type was determined using a Lineweaver–Burk plot. The apparent slope (Kmapp/Vmaxapp) and intercept (1/Vmaxapp) versus different inhibitor concentrations was used to determine the inhibition constant (Ki). Different kinetic parameters were obtained for different concentrations of the substrate (0.5, 0.75, and 1 mM) and inhibitors (compound 1—0.0, 4.0, 6.6, and 9.3 µM; compound 3—0, 2.5, 2.6, and 2.7 µM). Sigmaplot version 12.0 (SPSS Inc., Chicago, IL, USA) was employed to generate the plots.

The mark [6] stands for this setting: IC50 L-Tyrosine, substrate L-tyrosine.

T2 sequence (C7FF04 1-392): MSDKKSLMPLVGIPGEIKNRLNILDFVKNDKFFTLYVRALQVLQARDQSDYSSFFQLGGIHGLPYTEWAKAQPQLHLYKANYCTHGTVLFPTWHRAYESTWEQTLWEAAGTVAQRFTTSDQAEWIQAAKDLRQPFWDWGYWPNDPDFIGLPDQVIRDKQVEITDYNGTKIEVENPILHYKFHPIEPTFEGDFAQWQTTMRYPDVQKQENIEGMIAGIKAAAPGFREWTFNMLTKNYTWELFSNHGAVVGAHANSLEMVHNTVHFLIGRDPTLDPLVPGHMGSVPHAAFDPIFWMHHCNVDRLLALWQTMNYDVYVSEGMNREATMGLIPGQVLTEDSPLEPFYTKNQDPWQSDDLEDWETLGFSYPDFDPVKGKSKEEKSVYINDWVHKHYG

`OC[C@H]1O[C@@H](Oc2ccc(O)cc2)[C@H](O)[C@@H](O)[C@@H]1O` [Arbutin, reference compound]: in data set [1] (arbutin pre-treatment (positive control)), the tyrosinase protein expression entry is listed as “significantly reduced the expression levels”. This molecule had a melanin content in the data set with B16F10 melanoma cells (500 µM, 5 µM α-MSH 48 h) of 124.06%. The molecule further gave an intracellular tyrosinase level in data set [2] (500 µM) of 130.75%.

A word on the IC50: it is the midpoint of a concentration-inhibition curve. With `COCc1c(Br)c(O)c(O)c(Br)c1Br` [Compound 2, 2,3,6-tribromo-4,5-dihydroxybenzyl methyl ether], the tyrosinase protein expression result in data set [1] (6.25, 12.5 and 25 μM, 48 h) is reported as “did not reduce expression”. The “effect on melanin content” value with B16F10 melanoma cells (5 µM α-MSH 48 h) is “no significant reduction”. In addition, the viability at 48 h, 100 µM in data set [3] (100 µM, 48 h, MTT, read-out: viable cells) was about 100%. In addition, the half-inhibitory concentration (IC50) against mushroom tyrosinase [4] (IC50 L-DOPA, substrate L-DOPA) was over 300 µM; against mushroom tyrosinase [4] (setting [6]), 113.9 ± 0.75 µM. For the same molecule, in data set [2], the “effect on intracellular tyrosinase activity” value is “did not show a significant reduction”.

For orientation: Ki means a measure of affinity in units of concentration, obtained from inhibition or displacement. A higher Ki goes with weaker binding. `Oc1c(O)c(Br)c(COCc2c(Br)c(O)c(O)c(Br)c2Br)c(Br)c1Br` [Compound 3, bis-(2,3,6-tribromo-4,5-dihydroxybenzylmethyl ether)]: the tyrosinase protein expression entry in data set [1] (6.25, 12.5 and 25 μM, 48 h) is “inhibited α-MSH-induced accumulation of tyrosinase proteins in a concentration-dependent manner”. For the same molecule, in the data set on B16F10 melanoma cells (25 µM, pretreated 1 h then 5 µM α-MSH 48 h), the melanin content came out at 98.68%. Moreover, the “effect on melanin content” value in the data set on B16F10 melanoma cells (5 µM α-MSH 48 h) was “reduced the melanin content in a dose-dependent manner”. The molecule also returned a viability at 48 h, 100 µM in data set [3] of 86.9%. For the same molecule, the IC50 came to 111 ± 4.95 µM against mushroom tyrosinase [4] (IC50 L-DOPA, substrate L-DOPA) and 2.92 ± 0.04 µM against mushroom tyrosinase [4] (setting [6]). The molecule further displayed an intracellular tyrosinase level in data set [2] (25 µM) of 94.81%. Besides, the “effect on intracellular tyrosinase activity” value in data set [2] is given as “decreased in a dose-dependent manner”. For the same molecule, the Ki on mushroom tyrosinase [5] was 1.98 µM. Further, the “Inhibition Type” value at mushroom tyrosinase [5] (substrate L-tyrosine, from Lineweaver-Burk plots) is recorded as “competitive-type inhibition”.
